Assay results from US5710130A, “Antithrombotic agents” (Eli Lilly and Company, priority 1995, dated 1998).
Counter-ions that a name gives are not always drawn.

Experiments:
[1] = system: human plasma; assay: Human plasma anticoagulation, activated partial thromboplastin time (APTT); assay type: biochemical; settings: concentration required to double APTT, linear extrapolation
How it was run: (§1)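 Compounds added across a wide concentration range to plasma; PT measured with Thromboplastin-C, APTT after 120 s Actin incubation then 0.02 M CaCl2, TT with bovine thrombin (10 NIH units/mL). Clotting-time doubling concentrations estimated by linear extrapolation.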

[2] = system: human plasma; assay: Human plasma anticoagulation, thrombin time (TT); assay type: biochemical; settings: concentration required to double thrombin time, linear extrapolation
How it was run: as §1

[3] = target: T1, activated protein C (aPC) (Homo sapiens, UniProt P04070); assay: Inhibition of activated protein C (aPC), chromogenic substrate; assay type: biochemical; settings: statement in words
T1 construct: made in house
T1 sequence (P04070 212-450 limits assumed): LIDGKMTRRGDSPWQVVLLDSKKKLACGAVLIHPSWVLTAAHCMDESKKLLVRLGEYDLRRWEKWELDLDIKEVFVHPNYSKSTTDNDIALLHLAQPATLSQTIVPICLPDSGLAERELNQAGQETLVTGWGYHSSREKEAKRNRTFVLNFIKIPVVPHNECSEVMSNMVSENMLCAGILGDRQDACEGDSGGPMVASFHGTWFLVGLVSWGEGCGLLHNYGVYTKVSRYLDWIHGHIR
T1 sequence (P04070 43-197 partner limits assumed): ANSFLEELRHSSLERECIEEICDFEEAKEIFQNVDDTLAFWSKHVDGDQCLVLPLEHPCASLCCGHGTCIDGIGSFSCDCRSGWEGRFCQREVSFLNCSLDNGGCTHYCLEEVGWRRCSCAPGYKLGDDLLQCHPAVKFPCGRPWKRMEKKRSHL
Method: By substantially following the procedures described above for human thrombin, and using other human blood coagulation system serine proteases and proteases of the fibrinolytic system with the appropriate chromogenic substrates, identified below, selectivity of the compounds of the present invention with respect to the coagulation factor serine proteases and with respect to the fibrinolytic system serine proteases are evaluated as well as their substantial lack of interference with serine proteases of the fibrinolytic system. Thrombin inhibitors preferably should spare fibrinolysis induced by urokinase, tissue plasminogen activator (t-PA) and streptokinase. This would be important to the therapeutic use of such agents as an adjunct to streptokinase, t-PA or urokinase thrombolytic therapy and to the use of such agents as an endogenous fibrinolysis-sparing (with respect to t-PA and urokinase) antithrombotic agent. In addition to the lack of interference with the amidase activity of the fibrinolytic proteases, such fibrinolytic system sparing can be studied by the use of human plasma clots and their lysis by the respective fibrinolytic plasminogen activators.
Human factors X, Xa, IXa, XIa, and XIIa are purchased from Enzyme Research Laboratories, South Bend, Ind.; human urokinase from Leo Pharmaceuticals, Denmark; and recombinant activated Protein C (aPC) is prepared at Eli Lilly and Co. substantially according to U.S. Pat. No. 4,981,952. Chromogenic substrates: N-Benzoyl-Ile-Glu-Gly-Arg-p-nitroanilide (for factor Xa); N-Cbz-D-Arg-Gly-Arg-p-nitroanilide (for factor IXa assay as the factor Xa substrate); Pyroglutamyl-Pro-Arg-p-nitroanilide (for Factor XIa and for aPC); H-D-Pro-Phe-Arg-p-nitroanilide (for factor XIIa); and Pyroglutamyl-Gly-Arg-p-nitroanilide (for urokinase); are purchased from KabiVitrum, Stockholm, Sweden, or from Midwest Biotech, Fishers, Ind.. Bovine trypsin is purchased from Worthington Biochemicals, Freehold, N.J., and human plasma kallikrein from Kabi Vitrum, Stockholm, Sweden. […]

[4] = system: human plasma; assay: Human plasma anticoagulation, prothrombin time (PT); assay type: biochemical; settings: concentration required to double PT, linear extrapolation
How it was run: as §1

[5] = target: Human Thrombin (Homo sapiens, UniProt P00734); assay: Inhibition of thrombin amidase activity (Kass), chromogenic substrate; assay type: biochemical; settings: mean Kass over a range of concentrations; substrate N-benzoyl-Phe-Val-Arg-p-nitroanilide
[6] = target: factor Xa (Homo sapiens, UniProt P00742); assay: Kass against factor Xa, chromogenic substrate; assay type: biochemical; settings: substrate N-Benzoyl-Ile-Glu-Gly-Arg-p-nitroanilide
Chain of factor Xa (P00742 235-488 limits assumed): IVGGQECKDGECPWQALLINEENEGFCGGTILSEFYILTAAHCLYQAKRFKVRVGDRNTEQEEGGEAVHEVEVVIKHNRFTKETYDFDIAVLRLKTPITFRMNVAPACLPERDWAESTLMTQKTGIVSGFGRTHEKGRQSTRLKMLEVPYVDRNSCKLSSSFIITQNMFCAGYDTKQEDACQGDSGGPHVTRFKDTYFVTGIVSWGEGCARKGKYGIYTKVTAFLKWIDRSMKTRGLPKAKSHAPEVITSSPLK
Chain of factor Xa (P00742 41-179 partner limits assumed): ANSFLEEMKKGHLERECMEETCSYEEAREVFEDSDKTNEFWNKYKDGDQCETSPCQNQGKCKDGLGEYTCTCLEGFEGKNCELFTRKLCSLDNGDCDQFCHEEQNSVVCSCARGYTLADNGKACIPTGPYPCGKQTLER

[7] = early clinical studies, Simoons et al., Circulation 90, I-231 (1994); cited from earlier work
[8] = system: thrombin; settings: Bajusz et al., J. Med. Chem. 33, 1729-1735 (1990); cited from earlier work

Structure (SMILES)	Human Plasma Anticoagulation 2x Clotting time APTT [1]	Human Plasma Anticoagulation 2x Clotting time TT [2]	inhibition of activated protein C (aPC) [3]	Human Plasma Anticoagulation 2x Clotting time PT [4]	direct inhibition of thrombin [8]	other results
N=C(N)c1ccc(CNC(=O)[C@@H]2CCCN2C(=O)[C@@H](CC2CCCCC2)NCC(=O)O)nc1 [Example 66, N-(carboxymethyl)-D-cyclohexylalanyl-N-[[5-(aminoiminomethyl)pyridin-2-yl]methyl]-L-prolinamide hydrochloride]	180 ng/mL	7.9 ng/mL	very weak inhibition	270 ng/mL	–	–
Cl.Cl.Cl.N=C(N)c1ccc(CNC(=O)[C@@H]2CCCN2C(=O)[C@@H](CC2CCCCC2)NCC(=O)O)nn1 [Example 69, N-(carboxymethyl)-D-cyclohexylalanyl-N-[[6-(aminoiminomethyl)pyridazin-3-yl]methyl]-L-prolinamide tri-hydrochloride]	110 ng/mL	5 ng/mL	very weak inhibition	220 ng/mL	–	Kass Human Thrombin [5]: 340 × 10^6 (L/mole)
CCS(=O)(=O)N[C@H](Cc1ccccc1)C(=O)N1CCC[C@H]1C(=O)NCCc1cccc(N=C(N)N)c1.Cl [Example 37, EtSO2 -D-Phe-Pro-m-NHCH2 CH2 C6 H4 NHC(NH)NH2.HCl]	> 9,000 ng/mL	> 9,000 ng/mL	–	> 9,000 ng/mL	–	Kass Xa [6]: < 0.009 × 10^6 (L/mole); Kass Human Thrombin [5]: 0.02 × 10^6 (L/mole)
N=C(N)C1=CNC(CNC(=O)[C@@H]2CCCN2C(=O)[C@@H](CC2CCCCC2)NCC(=O)O)CC1 (stereo partly drawn) [Example 68, N-(carboxymethyl)-D-cyclohexylalanyl-N-[[5-(aminoiminomethyl)-1,2,3,4-tetrahydropyridin-2-yl]methyl]L-prolinamide hydrochloride]	49 ng/mL	4 ng/mL	very weak inhibition	190 ng/mL	–	–
CN[C@H](Cc1ccccc1)C(=O)N1CCC[C@H]1C(=O)N[C@H](C=O)CCCNC(=N)N.O=S(=O)(O)O [D-MePhe-Pro-Arg-H sulfate]	–	–	–	–	–	anticoagulant in man [7]: is an anticoagulant in man
CN[C@H](Cc1ccccc1)C(=O)N1CCC[C@H]1C(=O)N[C@H](C=O)CCCNC(=N)N [D-MePhe-Pro-Arg-H]	–	–	–	–	potent direct inhibition	–
N=C(N)NCCC[C@@H](C=O)NC(=O)[C@@H]1CCCN1C(=O)[C@H](N)Cc1ccccc1 [D-Phe-Pro-Arg-H]	–	–	–	–	potent direct inhibition	–
CC(C)(C)OC(=O)N[C@H](Cc1ccccc1)C(=O)N1CCC[C@H]1C(=O)N[C@H](C=O)CCCNC(=N)N [Boc-D-Phe-Pro-Arg-H]	–	–	–	–	potent direct inhibition	–
